This is an account of results in US20240059689A1, “PURINE DERIVATIVES AS ANTICANCER AGENTS” (Tango Therapeutics, Inc., priority 2021, published 2024).

pIC50: −log10 of the molar value.

Assay [1] relates to HCC1954. Put plainly: Viability assay, BRCA1 WT cell line HCC1954. It is filed as cell-based. Particulars: Homo sapiens, HCC1954, viability, read-out: HCC1954 rel IC50. The text has this: (§1) Table 1 also indicates IC50 values in a viability assay for a non-isogenic pair of BRCA1 mutant (column 5-MDA-MB-436) and BRCA1 WT (column 6—HCC1954) cell lines. These values indicate the effect of treatment with compound on cell survival.

The subject of assay [2] is MDA-MB-436. Put plainly: Viability assay, BRCA1 mutant cell line MDA-MB-436. In kind it is cell-based. Particulars: Homo sapiens, MDA-MB-436, viability, BRCA1 mutant MDA-MB-436; read-out: MDA-MB-436 rel IC50.
Source text: as §1

Assay [3] has as its system monoubiquitinated PCNA. Put plainly: AlphaLISA assay measuring monoubiquitinated PCNA in MDA-MB-436. It is filed as cell-based. Particulars: Homo sapiens, MDA-MB-436, monoubiquitinated PCNA, read-out: Alpha Lisa IC50. The text has this: Table 1 also indicates IC50 values for exemplary compounds in an AlphaLISA assay measuring monoubiquitinated PCNA in a BRCA1 mutant cell line (MDA-MB-436; column 7).
In general terms: Alpha assays give light when donor and acceptor beads are brought close together.

Assay [4] addresses USP1-UAF1 (Homo sapiens, UniProt O94782). Put plainly: Ubiquitin Rhodamine assay of USP1-UAF1 activity. It is filed as biochemical. As to the method:
Certain compounds of the disclosure were assessed for USP1-UAF1 activity in a Ubiquitin Rhodamine assay as described in Biology Example 1.

Sequence of USP1-UAF1 (O94782 whole entry): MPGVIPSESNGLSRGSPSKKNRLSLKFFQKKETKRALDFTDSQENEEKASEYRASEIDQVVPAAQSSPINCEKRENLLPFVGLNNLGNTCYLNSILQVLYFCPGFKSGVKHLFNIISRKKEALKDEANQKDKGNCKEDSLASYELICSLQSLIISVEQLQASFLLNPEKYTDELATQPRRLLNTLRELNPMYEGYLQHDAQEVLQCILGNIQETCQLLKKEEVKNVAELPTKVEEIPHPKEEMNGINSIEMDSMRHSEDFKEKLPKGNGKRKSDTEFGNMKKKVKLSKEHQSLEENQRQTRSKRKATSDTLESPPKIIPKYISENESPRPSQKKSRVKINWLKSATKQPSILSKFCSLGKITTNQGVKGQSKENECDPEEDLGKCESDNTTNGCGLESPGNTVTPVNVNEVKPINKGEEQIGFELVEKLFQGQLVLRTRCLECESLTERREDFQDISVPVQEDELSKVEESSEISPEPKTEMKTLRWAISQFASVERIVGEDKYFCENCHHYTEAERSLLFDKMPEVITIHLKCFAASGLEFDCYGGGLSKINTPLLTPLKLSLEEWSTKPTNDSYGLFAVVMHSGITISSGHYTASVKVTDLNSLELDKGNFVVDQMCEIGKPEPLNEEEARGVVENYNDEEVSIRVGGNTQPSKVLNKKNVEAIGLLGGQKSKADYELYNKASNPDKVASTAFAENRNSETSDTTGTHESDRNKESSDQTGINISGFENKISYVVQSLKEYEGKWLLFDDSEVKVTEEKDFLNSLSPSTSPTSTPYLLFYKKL
Sequence of USP1-UAF1 (Q8TAF3 whole entry partner): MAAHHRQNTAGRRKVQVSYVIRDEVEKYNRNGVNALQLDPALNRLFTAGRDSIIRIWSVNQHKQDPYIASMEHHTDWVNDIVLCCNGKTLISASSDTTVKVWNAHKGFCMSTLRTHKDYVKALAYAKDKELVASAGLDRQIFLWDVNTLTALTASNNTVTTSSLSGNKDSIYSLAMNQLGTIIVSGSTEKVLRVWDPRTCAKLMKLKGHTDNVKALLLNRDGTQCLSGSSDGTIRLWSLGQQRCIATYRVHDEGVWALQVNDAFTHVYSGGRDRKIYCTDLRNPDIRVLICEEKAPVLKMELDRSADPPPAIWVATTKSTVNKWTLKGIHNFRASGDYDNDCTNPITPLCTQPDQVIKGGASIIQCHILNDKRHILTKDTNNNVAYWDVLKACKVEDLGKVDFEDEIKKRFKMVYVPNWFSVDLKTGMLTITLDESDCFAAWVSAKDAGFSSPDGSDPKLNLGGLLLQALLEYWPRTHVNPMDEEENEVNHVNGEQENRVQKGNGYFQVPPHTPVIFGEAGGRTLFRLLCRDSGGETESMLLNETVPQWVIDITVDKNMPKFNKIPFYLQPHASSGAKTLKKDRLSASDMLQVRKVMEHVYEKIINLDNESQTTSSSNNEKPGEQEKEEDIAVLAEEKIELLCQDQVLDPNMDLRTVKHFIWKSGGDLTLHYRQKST

As a reminder, the pIC50 is the IC50 on a negative log10 scale, so that one unit is a factor of ten. Regarding `COc1ncnc(C(F)(F)F)c1-c1ncc2c(n1)n(Cc1ccc(-n3nc(C(F)(F)F)cc3OC)cc1)c(=N)n2CC(F)(F)F` [Example T-145, 9-[[4-[5-methoxy-3-(trifluoromethyl)pyrazol-1-yl]phenyl]methyl]-2-[4-methoxy-6-(trifluoromethyl)pyrimidin-5-yl]-7-(2,2,2-trifluoroethyl)purin-8-imine], the pIC50 is 5.00 to 6.60 in assay [1], 6.60 to 7.00 in assay [2], above 7.00 in assay [3] and 7.00 to 7.52 in assay [4].
The corresponding values for `COc1nc(C)nc(C2CC2)c1-c1ncc2c(n1)n(Cc1ccc(-c3nc(C(F)(F)F)cn3C)cc1)c(=N)n2C` [Example T-146, 2-(4-cyclopropyl-6-methoxy-2-methyl-pyrimidin-5-yl)-7-methyl-9-[[4-[1-methyl-4-(trifluoromethyl)imidazol-2-yl]phenyl]methyl]purin-8-imine] are at most 5.00, above 7.00, above 7.00 and 7.00 to 7.52.
On to `Cn1cc(C(F)(F)F)nc1-c1ccc(Cn2c(=N)n(CC(F)(F)F)c3cnc(-c4c(OCF)ncnc4C4CC4)nc32)cc1` [Example T-147, 2-[4-cyclopropyl-6-(fluoromethoxy)pyrimidin-5-yl]-9-[[4-[1-methyl-4-(trifluoromethyl)imidazol-2-yl]phenyl]methyl]-7-(2,2,2-trifluoroethyl)purin-8-imine], for which the pIC50 is at most 5.00 in assay [1], 6.60 to 7.00 in assay [2], above 7.00 in assay [3] and 7.00 to 7.52 in assay [4].
